# PubChem BioAssay AID2060343 (Molecular Pharmacology Branch, DTP, NCI, 2025)
# Test system: 138582-337-R-J1-PDC spheroids with HUVEC/MSC, viability
# Assay: Anticancer human tumor 138582-337-R-J1-PDC patient-derived Merkel cell tumor cell line growth inhibition [IpAb]
# Conditions: for IC50: curve of first compound; for viability, T/C: stronger effect = lower value
# How it was run: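 Combinations with ipatasertib or abemaciclib were tested on tumour spheroids holding HUVEC (25%) and MSC (15%) alongside 60% malignant cells. Top concentration was at or near clinical Cmax (10 microM if undefined), descending in half-log steps.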
# [1] = second compound 0.01 µM, first compound 0.0316 µM
# [2] = second compound 0.01 µM, first compound 0.1 µM
# [3] = second compound 0.01 µM, first compound 0.316 µM
# [4] = second compound 0.01 µM, first compound 1 µM
# [5] = second compound 0.0316 µM, first compound 0.0316 µM
# [6] = second compound 0.0316 µM, first compound 0.1 µM
# [7] = second compound 0.0316 µM, first compound 0.316 µM
# [8] = second compound 0.0316 µM, first compound 1 µM
# [9] = second compound 0.1 µM, first compound 0.0316 µM
# [10] = second compound 0.1 µM, first compound 0.1 µM
# [11] = second compound 0.1 µM, first compound 0.316 µM
# [12] = second compound 0.1 µM, first compound 1 µM
# [13] = second compound 0.316 µM, first compound 0.0316 µM
# [14] = second compound 0.316 µM, first compound 0.1 µM
# [15] = second compound 0.316 µM, first compound 0.316 µM
# [16] = second compound 0.316 µM, first compound 1 µM
# [17] = second compound 1 µM, first compound 0.0316 µM
# [18] = second compound 1 µM, first compound 0.1 µM
# [19] = second compound 1 µM, first compound 0.316 µM
# [20] = second compound 1 µM, first compound 1 µM
# [21] = second compound 0.01 µM, first compound 3.16 µM
# [22] = second compound 0.01 µM, first compound 10 µM
# [23] = second compound 0.0316 µM, first compound 3.16 µM
# [24] = second compound 0.0316 µM, first compound 10 µM
# [25] = second compound 0.1 µM, first compound 3.16 µM
# [26] = second compound 0.1 µM, first compound 10 µM
# [27] = second compound 0.316 µM, first compound 3.16 µM
# [28] = second compound 0.316 µM, first compound 10 µM
# [29] = second compound 1 µM, first compound 3.16 µM
# [30] = second compound 1 µM, first compound 10 µM
# 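Also: spheroids exposed to compounds for seven days.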
# 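For viability, T/C in this document: 100% = DMSO vehicle control viability.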
SMILES,IC50 (second compound 0.01 µM),IC50 (second compound 0.0316 µM),IC50 (second compound 0.1 µM),IC50 (second compound 0.316 µM),IC50 (second compound 1 µM),"viability, T/C [1]","viability, T/C [2]","viability, T/C [3]","viability, T/C [4]","viability, T/C [5]","viability, T/C [6]","viability, T/C [7]","viability, T/C [8]","viability, T/C [9]","viability, T/C [10]","viability, T/C [11]","viability, T/C [12]","viability, T/C [13]","viability, T/C [14]","viability, T/C [15]",other results
COc1c(OCCCN2CCOCC2)ccc2c3n(c(=NC(=O)c4cnc(N)nc4)nc12)CCN3 + CCN1CCN(Cc2ccc(Nc3ncc(F)c(-c4cc(F)c5nc(C)n(C(C)C)c5c4)n3)nc2)CC1,48.1 nM,42.1 nM,43.2 nM,42.7 nM,31.3 nM,58.5%,33.7%,15.2%,1.9%,56.7%,35.1%,14.7%,1.66%,55.4%,32.8%,11.6%,1.67%,57.5%,31.4%,11.8%,"viability, T/C (second compound 0.01 µM, first compound 0.00316 µM): 91.8%; viability, T/C (second compound 0.01 µM, first compound 0.01 µM): 80.9%; viability, T/C (second compound 0.0316 µM, first compound 0.00316 µM): 93.2%; viability, T/C (second compound 0.0316 µM, first compound 0.01 µM): 73.2%; viability, T/C (second compound 0.1 µM, first compound 0.00316 µM): 84.1%; viability, T/C (second compound 0.1 µM, first compound 0.01 µM): 76.5%; viability, T/C (second compound 0.316 µM, first compound 0.00316 µM): 85.9%; viability, T/C (second compound 0.316 µM, first compound 0.01 µM): 74.2%; viability, T/C [16]: 2.07%; viability, T/C (second compound 1 µM, first compound 0.00316 µM): 98.3%; viability, T/C (second compound 1 µM, first compound 0.01 µM): 72%; viability, T/C [17]: 56.6%; viability, T/C [18]: 18.8%; viability, T/C [19]: 5.6%; viability, T/C [20]: 2.69%"
Cc1nc(NC(=O)N2CCCC2C(N)=O)sc1-c1ccnc(C(C)(C)C(F)(F)F)c1 (stereo not given) + CCN1CCN(Cc2ccc(Nc3ncc(F)c(-c4cc(F)c5nc(C)n(C(C)C)c5c4)n3)nc2)CC1,1850 nM,1410 nM,1140 nM,1010 nM,462 nM,95.2%,81.4%,73.2%,59%,94.1%,82.3%,69%,55.4%,88.1%,78.7%,59.2%,56.4%,90.8%,74.8%,69.7%,"viability, T/C [21]: 45.4%; viability, T/C [22]: 13.7%; viability, T/C [23]: 40.1%; viability, T/C [24]: 18.2%; viability, T/C [25]: 35.2%; viability, T/C [26]: 9.25%; viability, T/C [16]: 48.2%; viability, T/C [27]: 32.1%; viability, T/C [28]: 6.45%; viability, T/C [17]: 89.3%; viability, T/C [18]: 84.2%; viability, T/C [19]: 54.4%; viability, T/C [20]: 35.1%; viability, T/C [29]: 10.7%; viability, T/C [30]: 1.63%"
Cn1nccc1Nc1nccc(-c2ccn(C(CO)c3ccc(Cl)c(F)c3)c(=O)c2)n1 (stereo not given) + CCN1CCN(Cc2ccc(Nc3ncc(F)c(-c4cc(F)c5nc(C)n(C(C)C)c5c4)n3)nc2)CC1,> 10000 nM,> 10000 nM,> 10000 nM,> 10000 nM,> 10000 nM,99.8%,92.3%,90.1%,94.8%,88.3%,90.5%,82.7%,91.9%,79.9%,89.8%,79.6%,90.2%,89.8%,82.7%,88.6%,"viability, T/C [21]: 107%; viability, T/C [22]: 154%; viability, T/C [23]: 107%; viability, T/C [24]: 149%; viability, T/C [25]: 108%; viability, T/C [26]: 134%; viability, T/C [16]: 96%; viability, T/C [27]: 124%; viability, T/C [28]: 173%; viability, T/C [17]: 106%; viability, T/C [18]: 96%; viability, T/C [19]: 83.2%; viability, T/C [20]: 97.6%; viability, T/C [29]: 142%; viability, T/C [30]: 178%"
